Data on four compounds can be found in patent US5525523A, “Binding method for FK-506- and rapamycin-like drugs with a novel immunophilin” (Children's Research Institute, priority 1994, dated 1996).

Assay [1] deals with FKBP-14.6. Nature of the assay: Competition binding against [^3 H]-dihydro FK-506 (LH-20 assay). Further details: species or system calf. Particulars: for Kd: 6 nM [^3 H]-dihydro FK-506, rapamycin 0.1 nM-1 μM, 0.2% Tween-20, 50% receptor occupation. The procedure:
(§1) Binding of [^3 H]-dihydro FK-506 to protein fractions was assessed using the LH-20 assay as described by Handschumacher et al., Science, 226:544 (1984). Briefly, in a final volume of 250 μl, labeled FK-506 (2-5.35 nM in EtOH) and 2-5 μg protein (200 μl) were preliminarily incubated, and the competition reaction begun by the addition of varying concentrations of unlabeled FK-506 or rapamycin. Following 20 minutes at room temperature, a 200 μl aliquot of the reaction mixture was filtered through a 1.8 mL bed-volume Sephadex LH-20 column equilibrated with 20 mM Tris buffer, pH 7.2, containing 5 mM 2-mercaptoethanol and 0.05 % NAN3. Elution with five 250 μL portions of the assay buffer separated protein-bound [^3 H]-dihydro FK-506 from free labeled drug (Sjovall et al., in Giddlings et al., Advances in Chromatography, Marcel Dekker, Inc., N.Y., vol. 6, pp. 119-170 (1968)). Radioactivity in the 1.25 mL eluate was measured by liquid scintillation spectrometry (Optima Gold Scintillation cocktail, Packard Chemicals, Meriden, Conn.) operating at 59% efficiency. Non-specific binding was estimated by the addition of 1 μM unlabeled FK-506, which displaced ≥95% of the bound radioligand from binding sites.
To determine if rapamycin interacted with FK-506's binding site on FKBP-14.6, competition studies were carried out using 6 nM [^3 H]-dihydro FK-506 and 8 concentrations of rapamycin (0.1 nM-1 μM) in a buffer containing 0.2% Tween-20. Unlabeled FK-506 (1 μM) was used to define nonspecific binding.

Assay [2] has as its target FKBP-14.6. Put plainly: Saturation binding of [^3 H]-dihydro FK-506 (LH-20 assay, Scatchard and Hill plots). Also on record: species or system calf. Particulars: for Kd: saturation, eight concentrations of labeled FK-506 (0.25-12 nM), read-out: Kd, single high affinity binding site. The procedure: as §1
To obtain binding site information for the FKBP-14.6 protein, Scatchard plots were obtained in saturation experiments using eight concentrations of labeled FK-506 (0.25-12 nM) in triplicate (FIG. 4A). In FIG. 4A, specific binding is shown by (-.cndot.-.cndot.-) and non-specific binding by (- - -). Data were analyzed with the EBDA and Ligand Corporation programs.

SMILES strings stand for the structures. Some results are limits rather than exact numbers.

In general, Kd refers to the equilibrium constant for the complex coming apart.

For the compound `CO[C@H]1C[C@@H]2CC[C@@H](C)[C@@](O)(O2)C(=O)C(=O)N2CCCC[C@H]2C(=O)O[C@H]([C@H](C)C[C@@H]2CC[C@@H](O)[C@H](OC)C2)CC(=O)[C@H](C)/C=C(\C)[C@@H](O)[C@@H](OC)C(=O)[C@H](C)C[C@H](C)/C=C/C=C/C=C/1C` [Rapamycin], the “displacement of [^3 H]-dihydro FK-506 (manner)” value in the assay on FKBP-14.6 [1] (6 nM [^3 H]-dihydro FK-506, 8 concentrations of rapamycin) was “biphasic manner”. Besides, the Kd at FKBP-14.6 [1] (read-out: Kd, high affinity binding site) was 0.023 nM; on FKBP-14.6 [1] (read-out: Kd, low affinity binding site) it was 226 nM.

Turning to `CCC[C@@H]1/C=C(\C)C[C@H](C)C[C@H](OC)[C@H]2O[C@@](O)(C(=O)C(=O)N3CCCC[C@H]3C(=O)O[C@H](/C(C)=C/[C@@H]3CC[C@@H](O)[C@H](OC)C3)[C@H](C)[C@@H](O)CC1=O)[C@H](C)C[C@@H]2OC` [[^3 H]-dihydro FK-506], the dissociation constant (Kd) at FKBP-14.6 [2] (purified 14.6 kDa protein, listed as [^3 H]-FK-506) was approximately 1.77 nM; on FKBP-14.6 [2] (purified 14.6 kDa protein), 1.77 nM.

`[3H]CC([3H])C[C@@H]1/C=C(\C)C[C@H](C)C[C@H](OC)[C@H]2O[C@@](O)(C(=O)C(=O)N3CCCC[C@H]3C(=O)O[C@H](/C(C)=C/[C@@H]3CC[C@@H](O)[C@H](OC)C3)[C@H](C)[C@@H](O)CC1=O)[C@H](C)C[C@@H]2OC` (some centres unmarked) [[^3 H]-dihydro FK-506]: the Hill coefficients result in the assay on FKBP-14.6 [2] (saturation experiments, single class of binding sites) was “near unity”.

For `C=CC[C@@H]1/C=C(\C)C[C@H](C)C[C@H](OC)[C@H]2O[C@@](O)(C(=O)C(=O)N3CCCC[C@H]3C(=O)O[C@H](/C(C)=C/[C@@H]3CC[C@@H](O)[C@H](OC)C3)[C@H](C)[C@@H](O)CC1=O)[C@H](C)C[C@@H]2OC` [FK-506], the “bound radioligand displaced from binding sites” value in the assay on FKBP-14.6 [1] (1 μM unlabeled FK-506, 20 min) is reported as not below 95%. Moreover, the “binding site Bmax” value in the assay with FKBP-14.6 [2] (Scatchard analysis, purified 14.6 kDa protein) is listed as “about 67 nmoles/mg protein”.
